Assay results: patent publication US20050026911A1, “Benzotriazapinone salts and methods for using same” (priority 2003, published 2005)

Columns and labels:
[1] = target: T1, human gastrin (CCK2) receptors (Homo sapiens, UniProt P32239); test: [125I]-BH-CCK-8S binding at human gastrin (CCK2) receptors cloned into an NIH3T3 cell line; conditions: for Ki: read-out: pKi ± s.e.mean (converted); for pKi ± s.e.mean: displacement of [125I]-BH-CCK-8S, hCCK2R NIH3T3 clone 7 cell membranes
T1 construct: amplified by PCR (polymerase chain reaction) from the start codon to the stop codon; expressed in transfected cells
T1 sequence (P32239 1-447): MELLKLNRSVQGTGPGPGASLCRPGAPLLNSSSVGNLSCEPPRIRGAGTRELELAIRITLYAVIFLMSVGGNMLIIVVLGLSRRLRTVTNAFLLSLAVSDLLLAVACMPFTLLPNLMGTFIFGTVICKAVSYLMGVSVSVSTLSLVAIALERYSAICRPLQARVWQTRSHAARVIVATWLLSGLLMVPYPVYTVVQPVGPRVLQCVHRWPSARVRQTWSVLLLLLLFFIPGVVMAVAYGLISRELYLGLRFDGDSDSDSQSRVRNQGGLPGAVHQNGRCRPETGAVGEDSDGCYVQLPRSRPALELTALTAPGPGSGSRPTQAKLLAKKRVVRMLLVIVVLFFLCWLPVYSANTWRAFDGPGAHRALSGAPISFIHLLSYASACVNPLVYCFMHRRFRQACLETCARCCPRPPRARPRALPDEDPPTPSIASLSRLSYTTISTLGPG
Procedure: NIH3T3 cells from (ECACC) were cultured in Dulbecco's modified Eagle's medium (DMEM) (Invitrogen), containing 2 mM Glutamax I (Invitrogen), 10% heat inactivated newborn calf serum (Invitrogen). Cells (4×10^5) were seeded into 35 mm×10 mm dishes (Corning) and transfected using the Transfast™ reagent (Promega Corp.) according to the manufacturers instructions using 10 μg of the hCCK2R plasmid DNA at a ratio of 1:1 (DNA:Transfast™ reagent). Untransfected cells and cells transfected with vector only were also prepared as controls. After 48 h the cells were trypsinised using standard techniques (Culture of Animal Cells, A Manual of Basic Techniques 4th Ed, R. Ian Freshney) and dilutions were plated on 35 mm×10 mm dishes in media containing 800 μg/ml G-418 (Invitrogen). Cells were selected for 2 weeks until individual, separate colonies appeared. […] Using cloning rings and trypsinisation, according to standard techniques (Culture of Animal Cells, A Manual of Basic Techniques 4th Ed, R. Ian Freshney), individual colonies were picked from plates containing cells transfected with the vector only and cells transfected with the hCCK2R plasmid construct. The cells were expanded and analysed by radioligand binding analysis (see below).
Cultured clone 7 cells were stored as frozen pellets at −70° C. until required. Cell pellets were thawed in CCK2 assay buffer ((mM): 10 Hepes; 130 NaCl; 5 MgCl2; 4.7 KCl; 1 EGTA (pH7.2 at 21° C.) with 0.125 g Bacitracin added to each litre), and homogenised using a Polytron (4×1 s). The resulting membrane preparation was centrifuged at 39,800 g for 15 min at 4° C. Each cell pellet was re-suspended in fresh buffer and re-centrifuged as above. The final pellet was re-suspended by homogenisation (Teflon-in-glass), to the appropriate membrane concentration.
The assays were terminated by rapid filtration through pre-soaked Whatman GF/B filters which were washed (3×3 ml) with ice-cold 50 mM Tris HCl (pH7.4 @ 4° C.). Filters were transferred to plastic gamma counter vials and bound radioactivity determined by counting (1 min) in a Clini-gamma counter.
Saturation data were analysed using the curve-fitting programmes, Radlig and Ligand.
Briefly, dilution and addition of test compounds, radioligand and cell membranes were performed using a Beckman Biomek 2000. The ability of compounds to inhibit the specific binding of to hCCK2 receptors was determined in triplicate over a range of concentrations at half-log intervals. Total and non-specific binding was determined for each compound. Each compound was tested in a minimum of three experiments. Competition data were fitted to the Hill equation using Graph-pad Prism software to obtain estimates of the IC50 (mid-point location parameter) and nH (mid-point slope parameter). Dissociation constants (KI) were determined using the Cheng & Prusoff equation (1973) to correct for the receptor occupancy by the radioligand.

gastrin (CCK2) receptors [2] = target: T2, gastrin (CCK2) receptors (Rattus norvegicus, UniProt P30553); test: gastrin (CCK2) antagonist activity in an immature rat stomach assay; conditions: pentagastrin dose-response curves, acid secretion, read-out: pKB rat stomach (converted)
T2 construct: The stomach was excised and flushed with ca. 1 ml of unbuffered physiological saline solution; from tissue; host or cells: isolated whole stomach of immature rats (ca. 21 days old)
T2 sequence (P30553 1-452): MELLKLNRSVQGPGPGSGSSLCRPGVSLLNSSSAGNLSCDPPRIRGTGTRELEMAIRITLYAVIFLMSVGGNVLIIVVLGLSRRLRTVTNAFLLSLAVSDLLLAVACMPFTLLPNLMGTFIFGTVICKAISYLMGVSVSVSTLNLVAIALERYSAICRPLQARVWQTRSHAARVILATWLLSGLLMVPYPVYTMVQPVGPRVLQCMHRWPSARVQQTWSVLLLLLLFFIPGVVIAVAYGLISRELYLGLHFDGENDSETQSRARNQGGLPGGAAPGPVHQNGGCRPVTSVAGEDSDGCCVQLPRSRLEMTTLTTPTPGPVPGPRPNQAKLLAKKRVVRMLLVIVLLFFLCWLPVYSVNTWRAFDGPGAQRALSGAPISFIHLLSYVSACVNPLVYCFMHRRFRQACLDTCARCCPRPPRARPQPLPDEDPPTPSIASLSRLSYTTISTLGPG
How it was run: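 Pentagastrin dose-response curves were run cumulatively 60 min after drug went into the serosal bath, itself after 120 min stabilisation. Preparation: perfused stomach from rats ca. 21 days old (33-50 g), with unbuffered saline under 100% O2 at 1 ml min^−1 and perfusate pH monitored.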

gastrin (CCK2) receptors [3] = target: T2, gastrin (CCK2) receptors; conditions: rat stomach assay; Kalindjian et al., J. Med. Chem. 1994; cited from earlier work
CCK2 receptor = target: T3, CCK2 receptor (Rattus norvegicus, UniProt P30553); conditions: rat cortical membranes; Nishida et al. 1994; cited from earlier work
T3 construct: host or cells: rat cortical membranes
T3 sequence (P30553 1-452): T2 sequence (P30553 1-452)

Compound	Ki [1]	Kb (gastrin (CCK2) receptors [2])	also measured
O=C(CN1N=C(C2CCCCC2)c2ccccc2N(CC(=O)C2CCCC2)C1=O)Nc1cccc(C(=O)O)c1 [Example 22, 3-{2-[5-Cyclohexyl-1-(2-cyclopentyl-2-oxo-ethyl)-2-oxo-1,2-dihydro-3H-1,3,4-benzotriazepin-3-yl]-acetylamino}-benzoic acid]	0.355 nM	1.86 nM	–
O=C(O)Cc1cccc(NC(=O)CN2N=C(C3CCCCC3)c3ccccc3N(CC(=O)C3CCCC3)C2=O)c1 [Example 56, (3-{2-[5-Cyclohexy-1-(2-cyclopentyl-2-oxo-ethyl)-2-oxo-1,2-dihydro-3H-1,3,4-benzotriazepin-3-yl]-acetylamino}-phenyl)-acetic acid]	0.162 nM	0.741 nM	–
O=C(O)CSc1cccc(NC(=O)CN2N=C(C3CCCCC3)c3ccccc3N(CC(=O)C3CCCC3)C2=O)c1 [Example 58, (3-{2-[5-Cyclohexyl-1-(2-cyclopentyl-2-oxo-ethyl)-2-oxo-1,2-dihydro-3H-1,3,4-benzotriazepin-3-yl]-acetylamino}-phenylsulfanyl)-acetic acid]	–	1.48 nM	pKi ± s.e.mean [1]: 9.48 ± 0.08
CC(C)(C)C(=O)CN1C(=O)N(CC(=O)Nc2cccc(-c3nc(=O)o[nH]3)c2)N=C(C2CCCCC2)c2ccccc21 [Example 59, 2-[5-Cyclohexyl-1-(3,3-dimethyl-2-oxo-butyl)-2-oxo-1,2-dihydro-3H-1,3,4-benzotriazepin-3-yl]-N-[3-(5-oxo-Z5-dihydro-[1,2,4]oxadiazol-3-yl)-phenyl]-acetamide]	0.219 nM	9.55 nM	–
O=C(CN1N=C(C2CCCCC2)c2ccccc2N(CC(=O)C2CCCC2)C1=O)Nc1cccc(-c2nc(=O)o[nH]2)c1 [Example 121, 2-[5-Cyclohexyl-1-(2-cyclopentyl-2-oxo-ethyl)-2-oxo-1,2-dihydro-3H-1,3,4-benzotriazepin-3-yl]-N-[3-(5-oxo-Z 5-dihydro-[1,2,4]oxadiazol-3-yl)-phenyl]-acetamide]	0.11 nM	0.295 nM	–
O=C(O)CCc1cccc(NC(=O)CN2N=C(C3CCCCC3)c3ccccc3N(CC(=O)C3CCCC3)C2=O)c1 [Example 128, 3-(3-{2-[5-Cyclohexyl-1-(2-cyclopentyl-2-oxo-ethyl)-2-oxo-1,2-dihydro-3H-1,3,4-benzotriazepin-3-yl]-acetylamino}-phenyl)-propionic acid]	0.204 nM	1.23 nM	–
O=C(CN1N=C(C2CCCCC2)c2ccccc2N(CC(=O)C2CCCC2)C1=O)Nc1cccc(-c2nc(C(=O)O)co2)c1 [Example 148, 2-(3-{2-[5-Cyclohexyl-1-(2-cyclopentyl-2-oxo-ethyl)-2-oxo-1,2-dihydro-3H-1,3,4-benzotriazepin-3-yl]-acetylamino}-phenyl)-oxazole-4-carboxylic acid]	–	3.89 nM	–
O=C(CN1N=C(C2CCCCC2)c2ccccc2N(CC(=O)C2CCCC2)C1=O)Nc1cccc(-c2ccc(C(=O)O)o2)c1 [Example 149]	–	1.1 nM	–
CNc1nc(-c2cccc(NC(=O)CN3N=C(C4CCCCC4)c4ccccc4N(CC(=O)C(C)(C)C)C3=O)c2)cs1 [Example 150, 2-[5-Cyclohexyl-1-(3,3-dimethyl-2-oxo-butyl)-2-oxo-1,2-dihydro-3H-1,3,4-benzotriazepin-3-yl]-N-[3-(2-methylamino-thiazol-4-yl)-phenyl]-acetamide]	–	1.29 nM	–
CC(C)(C)C(=O)CN1C(=O)N(CC(=O)Nc2cccc(-c3cccc(C(=O)O)c3)c2)N=C(C2CCCCC2)c2ccccc21 [Example 151, 3′-{2-[5-Cyclohexyl-1-(3,3-dimethyl-2-oxo-butyl)-2-oxo-1,2-dihydro-3H-1,3,4-benzotriazepin-3-yl]-acetylamino}-biphenyl-3-carboxylic acid]	–	11.5 nM	–
C=C(CN1C(=O)N(CC(=O)Nc2cccc(CC(=O)O)c2)N=C(C2CCCCC2)c2ccccc21)C(C)(C)C [Example 152, (3-{2-[1-(2-tert-Butyl-allyl)-5-cyclohexyl-2-oxo-1,2-dihydro-3H-1,3,4-benzotriazepin-3-yl]-acetylamino}-phenyl)-acetic acid]	–	50.1 nM	–
CC(C)(C)C(=O)CN1C(=O)N(CC(=O)Nc2cccc(-c3ccccc3C(=O)O)c2)N=C(C2CCCCC2)c2ccccc21 [Example 154, 3′-{2-[5-Cyclohexyl-1-(3,3-dimethyl-2-oxo-butyl)-2-oxo-1,2-dihydro-3H-1,3,4-benzotriazepin-3-yl]-acetylamino}-biphenyl-2-carboxylic acid]	–	3.24 nM	–
CC(=O)N/C(=C\c1cccc(NC(=O)CN2N=C(C3CCCCC3)c3ccccc3N(CC(=O)C(C)(C)C)C2=O)c1)C(=O)O [Example 155, 2-Acetylamino-3-(3-{2-[5-cyclohexyl-1-(3,3-dimethyl-2-oxo-butyl)-2-oxo-1,2-dihydro-3H-1,3,4-benzotriazepin-3-yl]-acetylamino}-phenyl)-acrylic acid]	–	70.8 nM	–
CC(C)(C)C(=O)CN1C(=O)N(CC(=O)Nc2cccc(-c3ccc(C(=O)O)s3)c2)N=C(C2CCCCC2)c2ccccc21 [Example 157, 5-(3-{2-[5-Cyclohexyl-1-(3,3-dimethyl-2-oxo-butyl)-2-oxo-1,2-dihydro-3H-1,3,4-benzotriazepin-3-yl]-acetylamino}-phenyl)-thiophene-2-carboxylic acid]	–	7.76 nM	–
O=C(O)CCCc1cccc(NC(=O)CN2N=C(C3CCCCC3)c3ccccc3N(CC(=O)C3CCCC3)C2=O)c1 [Example 159]	–	1.26 nM	–
CN1C(=O)N(CC(=O)Nc2ccccc2)[N+]([O-])=C(C2CCCCC2)c2ccccc21 [Example 160, 2-(5-Cyclohexyl-1-methyl-2-oxo-4-oxy-1,2-dihydro-3H-1,3,4-benzotriazepin-3-yl)-N-phenyl-acetamide]	3240 nM	2.82 nM	–
Cc1cccc(NC(=O)N[C@@H]2N=C(c3ccccc3)c3ccccc3N(C)C2=O)c1 [L-365,260]	–	–	affinity pKB for the CCK2 receptor (gastrin (CCK2) receptors [3]): 7.61±0.12
CNc1cccc(NC(=O)N[C@@H]2N=C(c3ccccn3)c3ccccc3N(CC(=O)C(C)(C)C)C2=O)c1 [YF476]	–	–	affinity pKi for the CCK2 receptor (CCK2 receptor): 10.17+0.03
Cc1cccc(NC(=O)N[C@@H]2N=C(c3ccccc3)c3ccccc3N(CC(=O)c3ccccc3C)C2=O)c1 [YM022, reference compound]	–	–	pKi ± s.e.mean [1]: 10.19 ± 0.03
